The results in this text go back to patent publication US11096930B2, “Substituted imidazopyridine compounds as inhibitors of indoleamine 2,3-dioxygenase and/or tryptophan-2,3-dioxygenase” (IOMet Pharma Ltd., priority 2016, dated 2021).

The target of assay [1] is T1, IDO1 (Homo sapiens (Human), UniProt P14902). The experiment in a line: IDO1 HEK293 Cellular Assay. Format: cell-based. The settings on record: HEK293 cells transfected with Flag-IDO1 vector; read-out: HEK293 Cell Assay, pIC50 (converted). As to the method: IDO1 HEK293 Cellular Assay
T1 sequence (P14902 whole entry): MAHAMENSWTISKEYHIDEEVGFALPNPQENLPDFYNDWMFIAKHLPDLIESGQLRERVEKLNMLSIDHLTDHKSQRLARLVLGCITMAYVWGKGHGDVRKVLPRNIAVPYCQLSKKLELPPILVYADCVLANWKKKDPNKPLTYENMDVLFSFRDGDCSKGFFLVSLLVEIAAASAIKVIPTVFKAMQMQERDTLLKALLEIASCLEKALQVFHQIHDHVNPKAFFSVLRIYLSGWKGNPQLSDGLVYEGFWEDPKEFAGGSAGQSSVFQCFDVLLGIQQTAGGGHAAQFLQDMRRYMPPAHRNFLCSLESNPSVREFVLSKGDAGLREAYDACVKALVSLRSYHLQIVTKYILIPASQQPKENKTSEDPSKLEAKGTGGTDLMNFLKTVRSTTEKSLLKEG
Compounds to be tested were serially diluted in ten 3-fold steps in DMSO starting from 10 mM DMSO stocks. Compound dilutions or DMSO alone were then dispensed from the dilution plate into a Greiner black 384-well assay plate (catalog #781086) using an Echo 550 acoustic liquid handler (Labcyte).
HEK293 cell pellets were resuspended to 5×10^5 cells/mL in complete HEK293 culture media (89% DMEM, 10% FBS, 1% penicilllin/streptomycin). Suspended cells (2 mL) were dispensed into each well of a 6-well Corning plate (Catalog #3516). Cells were allowed to attach and were incubated for 20 hours at 37 degrees Celsius in a 5% CO2 incubator. Flag-IDO1 vector (Genscript True ORF Gold, 2 ug) in 150 uL of Opti-MEM medium was added to each well of a Corning 24 well plate (Cat #3527) and incubated for 5 minutes at room temperature. To each well of the 24-well plate was added 150 μL Lipofectamine 2000 (Gibco) and the plate incubated at room temperature for 20-30 minutes. To each well of attached cells in the 6-well plate, 250 μL of the transfection mix from the 24-well plate was gently added to each well and IDO1 protein was allowed to express for 24-30 hours at 37 degrees Celsius in a 5% CO2 incubator.
Media was removed from the cells which were then washed with 2 mL Dulbecco's phosphate-buffered saline (DPBS). After removal of DPBS, 0.5 mL of TrypLE (Gibco) was added and incubated at 5 minutes until cells lift from the surface of the wells. Complete HEK293 culture media (4 mL) was added to each well and cells were collected and pooled into a conical tube. Cells were pelleted at 200×g for 5 minutes and resuspended in an equal volume of complete DMEM medium. Cells were diluted to 4×10^5 cells per mL in complete HEK293 media. L-Tryptophan was added to added to give a final concentration of 200 μM. The diluted transfected cells (50 μL) or nontransfected cells (50 μL) were dispensed into wells of Greiner black 384-well assay plates (catalog #781086) containing previously diluted compounds. The plate is briefly mixed and centrifuged at 200×g for 10 seconds to collect cells at the bottom of the plate. Plates were covered and incubated for 20-24 hours at 37 degrees C. in a 5% CO2 incubator. […] The resulting fluoresence was measured in an Envision plate reader (Perkin Elmer) with a 400/25 nm excitation filter and an 510/20 nm emission filter.
The fluoresence intensity of each well was corrected for the background observed in wells with untransfected cells and was expressed as a fraction of the intensity observed in wells of IDO1 transfected cells and DMSO only. Potencies were calculated by linear least squares fit to the four parameter logistic IC50 equation.

In assay [2] the target is T1, IDO1. Nature of the assay: IDO1 Enzyme Assay. Format: biochemical. The settings on record: HIS-tagged IDO1, fluorescence. As for the experimental part: Compounds to be tested were serially diluted in ten 3-fold steps in DMSO starting from 10 mM DMSO stocks. Compound dilutions or DMSO alone were then dispensed from the dilution plate into a Greiner black 384-well assay plate (catalog #781086) using an Echo 555 acoustic liquid handler (Labcyte).
HIS-tagged IDO1 protein was recombinantly expressed in Escherichia coli using ZYP5052 autoinduction media supplemented with 500 μM delta aminolevulinic acid for 48 hours at 16 degrees Celsius. IDO1 protein was purified using Ni^2+-affinity resin and size exclusion chromatography. Purified protein was then diluted in assay buffer (50 mM Tris pH 7.0, 1% glycerol, 20 μM methylene blue, 0.05% Tween-20, 20 mM sodium ascorbate, 100 units/mL catalase to obtain a final IDO1 concentration of 40 nM. […] were dispensed to wells of the assay plate using a BioRAPTR liquid dispenser (Beckman Coulter). Assay plates containing compound and IDO1 enzyme were incubated at room temperature for 30 minutes. Afterwards, 10 μL of 400 μM tryptophan in assay buffer were added to each well of the assay plate using a BioRAPTR liquid dispenser. Plates were incubated at room temperature for 60 minutes and reactions were quenched by addition of 10 μL of 0.5 M methyl isonipecotate in dimethyl sulfoxide. Plates were sealed and incubated at 37 degrees Celsius for 4 hours or 50 degrees Celsius for 2 hours. The plates are allowed to cool and then centrifuged for 1 minute at 1000×g. The resulting fluoresence was measured in an Envision plate reader (Perkin Elmer) with a 400/25 nm excitation filter and an 510/20 nm emission filter.
Potencies were calculated by linear least squares fit to the four parameter logistic IC50 equation.

`O=C1OCCC12CCN(c1cc(C(F)(F)F)cc3cncn13)CC2` [Example 17, 8-(7-(trifluoromethyl)imidazo[1,5-a]pyridin-5-yl)-2-oxa-8-azaspiro[4.5]decan-1-one]: in assay [1], the IC50 was 1.58 µM. For the same molecule, the “IDO1 Enzyme Assay, pIC50” value in assay [2] was 5.7.

For the molecule `CC1=NC2(CCN(c3cc(C(F)(F)F)cc4cncn34)CC2)C(=O)N1` [Example 18, 2-methyl-8-(7-(trifluoromethyl)imidazo[1,5-a]pyridin-5-yl)-1,3,8-triazaspiro[4.5]dec-1-en-4-one], the IC50 in assay [1] was 1.58 µM. In addition, the “IDO1 Enzyme Assay, pIC50” value in assay [2] is 5.7.

As for `O=C1NCCC12CCN(c1cc(C(F)(F)F)cc3cncn13)CC2` [Example 19, 8-(7-(trifluoromethyl)imidazo[1,5-a]pyridin-5-yl)-2,8-diazaspiro[4.5]decan-1-one], the IC50 in assay [1] is 6.31 µM. In assay [2], the “IDO1 Enzyme Assay, pIC50” value is given as 5.1.

On to `CC(=O)N1CCC2(CC1)CCN(c1cc(C(F)(F)F)cc3cncn13)CC2` [Example 20, 1-(9-(7-(Trifluoromethyl)imidazo[1,5-a]pyridin-5-yl)-3,9-diazaspiro[5.5]undecan-3-yl)ethan-1-one], for which, in assay [1], the IC50 was 2 µM. In assay [2], the “IDO1 Enzyme Assay, pIC50” value is recorded as 5.2.
